Assay results from patent US20240108601A1, “TREATMENT OF MENTAL DISORDERS” (GH Research Ireland Limited, priority 2022, published 2024).
“And” between values parts separate entries of the source, which are not always exact repeats. Equal entries are not always repeated.

Test system: patients with treatment-resistant major depressive disorder (TRD)
Experiment: Phase 1/2 clinical trial of inhaled 5-MeO-DMT in treatment-resistant depression
Conditions: for MADRS Concentration Difficulties % improvement / MADRS Concentration Difficulties improvement / MADRS Inability to Feel % improvement / MADRS Inability to Feel improvement / MADRS Inner Tension % improvement / MADRS Inner Tension improvement / MADRS Lassitude % improvement / MADRS Lassitude improvement / MADRS Pessimistic Thoughts % improvement / MADRS Pessimistic Thoughts improvement / MADRS Suicidal Thoughts % improvement / MADRS Suicidal Thoughts improvement / MADRS Suicidal Thoughts aggregated score / MADRS Inner Tension aggregated score / MADRS Concentration Difficulties aggregated score / MADRS Inability to Feel aggregated score / MADRS Lassitude aggregated score / MADRS Pessimistic Thoughts aggregated score / BPRS Anxiety % improvement / BPRS Anxiety improvement / BPRS Blunted Affect % improvement / BPRS Blunted Affect improvement / BPRS Emotional Withdrawal % improvement / BPRS Emotional Withdrawal improvement / BPRS Guilt Feelings % improvement / BPRS Guilt Feelings improvement / BPRS Tension % improvement / BPRS Tension improvement / BPRS Blunted Affect aggregated score / BPRS Emotional Withdrawal aggregated score / BPRS Tension aggregated score / BPRS Guilt Feelings aggregated score / BPRS Anxiety aggregated score / MADRS Reduced Sleep % improvement / MADRS Reduced Sleep improvement / MADRS Reduced Sleep aggregated score: 12 mg n=4; for MADRS Suicidal Thoughts aggregated score: baseline 8; for MADRS Inner Tension aggregated score / BPRS Emotional Withdrawal aggregated score: baseline 13; for MADRS Concentration Difficulties aggregated score / MADRS Inability to Feel aggregated score / MADRS Lassitude aggregated score / MADRS Pessimistic Thoughts aggregated score: baseline 16; for BPRS Blunted Affect aggregated score: baseline 11; for BPRS Tension aggregated score: baseline 14; for BPRS Guilt Feelings aggregated score: baseline 18; for BPRS Anxiety aggregated score: baseline 25; for MADRS Reduced Sleep aggregated score: baseline 12
Procedure: Patients were assigned to different groups. In the context of the present invention, the group who received a single, 12 mg dose and the group who underwent an intra-day individualized dosing regimen (IDR) that allowed for multiple, escalating doses (6 mg, 12 mg and 18 mg) within a single day, driven by the intensity of the patient-reported psychedelic experience are of interest.
The data gathered include the assessment of the treated patients against several scales including the Montgomery Åsberg Depression Rating Scale (MADRS) and the Brief Psychiatric Rating Scale (BPRS).
This trial was designed in two parts. Part A was an open-label, single-arm, single-dose Phase 1 trial with two dose levels (12 mg (n=4) and 18 mg (n=4)). […] The primary endpoint of Part B was to assess the effects on the severity of depression, as assessed by the proportion of patients in remission on day seven after dosing, defined as a MADRS total score of less than or equal to 10.

COc1ccc2[nH]cc(CCN(C)C)c2c1 [5-MeO-DMT]
Patients with MADRS remission (total score ≤10) (12 mg group n=4, day seven): 50% | Mean MADRS change from baseline (12 mg group, day seven): −21.0 | Mean MADRS change from baseline, percent (12 mg group, day seven): −65% | MADRS Concentration Difficulties % improvement (2 h): 56% and 56.25% | MADRS Concentration Difficulties improvement (2 h): 9 points | MADRS Inability to Feel % improvement (2 h): 44% and 43.75% | MADRS Inability to Feel improvement (2 h): 7 points | MADRS Inner Tension % improvement (2 h): 85% and 84.62% | MADRS Inner Tension improvement (2 h): 11 points | MADRS Lassitude % improvement (2 h): 38% and 37.50% | MADRS Lassitude improvement (2 h): 6 points | MADRS Pessimistic Thoughts % improvement (2 h): 50% | MADRS Pessimistic Thoughts improvement (2 h): 8 points | MADRS Suicidal Thoughts % improvement (2 h): 63% and 62.50% | MADRS Suicidal Thoughts improvement (2 h): 5 points | MADRS Suicidal Thoughts aggregated score (2 h): 3 | MADRS Inner Tension aggregated score (2 h): 2 | MADRS Concentration Difficulties aggregated score (2 h): 7 | MADRS Inability to Feel aggregated score (2 h): 9 | MADRS Lassitude aggregated score (2 h): 10 | MADRS Pessimistic Thoughts aggregated score (2 h): 8 | BPRS Anxiety % improvement (3 h): 56% | BPRS Anxiety improvement (3 h): 14 points | BPRS Blunted Affect % improvement (3 h): 27% and 27.27% | BPRS Blunted Affect improvement (3 h): 3 points | BPRS Emotional Withdrawal % improvement (3 h): 15% and 15.38% | BPRS Emotional Withdrawal improvement (3 h): 2 points | BPRS Guilt Feelings % improvement (3 h): 50% | BPRS Guilt Feelings improvement (3 h): 9 points | BPRS Tension % improvement (3 h): 36% and 35.71% | BPRS Tension improvement (3 h): 5 points | BPRS Blunted Affect aggregated score (3 h): 8 | BPRS Emotional Withdrawal aggregated score (3 h): 11 | BPRS Tension aggregated score (3 h): 9 | BPRS Guilt Feelings aggregated score (3 h): 9 | BPRS Anxiety aggregated score (3 h): 11 | BPRS Anxiety % improvement (day 1): 76% | BPRS Anxiety improvement (day 1): 19 points | BPRS Blunted Affect % improvement (day 1): 45% and 45.45% | BPRS Blunted Affect improvement (day 1): 5 points | BPRS Emotional Withdrawal % improvement (day 1): 38% and 38.46% | BPRS Emotional Withdrawal improvement (day 1): 5 points | BPRS Guilt Feelings % improvement (day 1): 72% and 72.22% | BPRS Guilt Feelings improvement (day 1): 13 points | BPRS Tension % improvement (day 1): 57% and 57.14% | BPRS Tension improvement (day 1): 8 points | MADRS Concentration Difficulties % improvement (day 1): 88% and 87.50% | MADRS Concentration Difficulties improvement (day 1): 14 points | MADRS Inability to Feel % improvement (day 1): 94% and 93.75% | MADRS Inability to Feel improvement (day 1): 15 points | MADRS Inner Tension % improvement (day 1): 77% and 76.92% | MADRS Inner Tension improvement (day 1): 10 points | MADRS Lassitude % improvement (day 1): 100% | MADRS Lassitude improvement (day 1): 16 points | MADRS Pessimistic Thoughts % improvement (day 1): 56% and 56.25% | MADRS Pessimistic Thoughts improvement (day 1): 9 points | MADRS Reduced Sleep % improvement (day 1): 17% and 16.67% | MADRS Reduced Sleep improvement (day 1): 2 points | MADRS Suicidal Thoughts % improvement (day 1): 38% and 37.50% | MADRS Suicidal Thoughts improvement (day 1): 3 points | MADRS Suicidal Thoughts aggregated score (day 1): 5 | BPRS Blunted Affect aggregated score (day 1): 6 | MADRS Reduced Sleep aggregated score (day 1): 10 | BPRS Emotional Withdrawal aggregated score (day 1): 8 | MADRS Inner Tension aggregated score (day 1): 3 | BPRS Tension aggregated score (day 1): 6 | MADRS Concentration Difficulties aggregated score (day 1): 2 | MADRS Inability to Feel aggregated score (day 1): 1 | MADRS Lassitude aggregated score (day 1): 0 | MADRS Pessimistic Thoughts aggregated score (day 1): 7 | BPRS Guilt Feelings aggregated score (day 1): 5 | BPRS Anxiety aggregated score (day 1): 6 | BPRS Anxiety % improvement (day 7): 76% | BPRS Anxiety improvement (day 7): 19 points | BPRS Blunted Affect % improvement (day 7): 55% and 54.55% | BPRS Blunted Affect improvement (day 7): 6 points | BPRS Emotional Withdrawal % improvement (day 7): 54% and 53.85% | BPRS Emotional Withdrawal improvement (day 7): 7 points | BPRS Guilt Feelings % improvement (day 7): 72% and 72.22% | BPRS Guilt Feelings improvement (day 7): 13 points | BPRS Tension % improvement (day 7): 57% and 57.14% | BPRS Tension improvement (day 7): 8 points | MADRS Concentration Difficulties % improvement (day 7): 81% and 81.25% | MADRS Concentration Difficulties improvement (day 7): 13 points | MADRS Inability to Feel % improvement (day 7): 94% and 93.75% | MADRS Inability to Feel improvement (day 7): 15 points | MADRS Inner Tension % improvement (day 7): 62% and 61.54% | MADRS Inner Tension improvement (day 7): 8 points | MADRS Lassitude % improvement (day 7): 81% and 81.25% | MADRS Lassitude improvement (day 7): 13 points | MADRS Pessimistic Thoughts % improvement (day 7): 50% | MADRS Pessimistic Thoughts improvement (day 7): 8 points | MADRS Reduced Sleep % improvement (day 7): 50% | MADRS Reduced Sleep improvement (day 7): 6 points | MADRS Suicidal Thoughts % improvement (day 7): 13% and 12.50% | MADRS Suicidal Thoughts improvement (day 7): 1 points | MADRS Suicidal Thoughts aggregated score (day 7): 7 | BPRS Blunted Affect aggregated score (day 7): 5 | MADRS Reduced Sleep aggregated score (day 7): 6 | BPRS Emotional Withdrawal aggregated score (day 7): 6 | MADRS Inner Tension aggregated score (day 7): 5 | BPRS Tension aggregated score (day 7): 6 | MADRS Concentration Difficulties aggregated score (day 7): 3 | MADRS Inability to Feel aggregated score (day 7): 1 | MADRS Lassitude aggregated score (day 7): 3 | MADRS Pessimistic Thoughts aggregated score (day 7): 8 | BPRS Guilt Feelings aggregated score (day 7): 5 | BPRS Anxiety aggregated score (day 7): 6 | Further patients with MADRS clinical response (18 mg group n=4, day seven): 25% | Patients with MADRS remission (total score ≤10) (18 mg group n=4, day seven): 25% | Mean MADRS change from baseline (18 mg group, day seven): −12.8 | Mean MADRS change from baseline, percent (18 mg group, day seven): −41% | Patients with MADRS remission (total score ≤10) (IDR (Part B) n=8, day seven, p<0.0001): 87.5%
